Reference: ChEMBL document CHEMBL2321830 (J Med Chem, 2013)

Key:
[1] = biological target: T1, Aldo-keto reductase family 1 member C3 (Homo sapiens, UniProt P42330); assay: Inhibition of human recombinant AKR1C3-mediated NADP+-dependent oxidation of S-(+)-1,2,3,4-tetrahydro-1-naphthol
T1 sequence (P42330 whole entry): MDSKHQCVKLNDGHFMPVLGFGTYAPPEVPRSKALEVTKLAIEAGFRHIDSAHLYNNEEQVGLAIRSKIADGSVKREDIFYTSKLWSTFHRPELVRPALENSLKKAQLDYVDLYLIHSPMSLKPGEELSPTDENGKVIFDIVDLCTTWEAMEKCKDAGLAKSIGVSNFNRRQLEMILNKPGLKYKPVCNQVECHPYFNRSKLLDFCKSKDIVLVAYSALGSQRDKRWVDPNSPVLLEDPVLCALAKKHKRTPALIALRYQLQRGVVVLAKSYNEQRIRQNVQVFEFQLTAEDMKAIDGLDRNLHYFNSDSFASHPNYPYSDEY

[2] = biological target: T2, Aldo-keto reductase family 1 member C2 (Homo sapiens, UniProt P52895); assay: Inhibition of human recombinant AKR1C2-mediated NADP+-dependent oxidation of S-(+)-1,2,3,4-tetrahydro-1-naphthol
T2 sequence (P52895 whole entry): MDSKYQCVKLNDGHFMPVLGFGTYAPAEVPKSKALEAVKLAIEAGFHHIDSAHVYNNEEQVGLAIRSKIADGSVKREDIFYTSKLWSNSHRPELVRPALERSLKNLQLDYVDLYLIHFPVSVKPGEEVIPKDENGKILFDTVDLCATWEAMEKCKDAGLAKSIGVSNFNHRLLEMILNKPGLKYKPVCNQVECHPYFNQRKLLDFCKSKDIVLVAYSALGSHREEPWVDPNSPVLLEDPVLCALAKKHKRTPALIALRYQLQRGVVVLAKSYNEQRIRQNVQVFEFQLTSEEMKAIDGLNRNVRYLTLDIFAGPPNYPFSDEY

| IC50 [1] [µM] | IC50 [2] [µM] | Structure (SMILES) |
| --- | --- | --- |
| 0.34 | 48.2 | COc1ccc2c(c1)c1c(n2C(=O)c2ccc(Cl)cc2)CC(C(=O)O)CC1 (stereo unspecified) |
| 0.14 | 45.1 | COc1ccc(C(=O)n2c(C)c(CC(=O)O)c3cc(OC)ccc32)cc1 |
| 2.09 | 17.3 | COc1ccc2c(c1)c(CC(=O)NS(=O)(=O)c1ccc(C(C)=O)cc1)cn2C(=O)c1ccc(Cl)cc1 |
| 2.52 | – | COc1ccc2c(c1)c(CC(=O)NS(=O)(=O)c1ccc(Oc3ccccc3)cc1)cn2C(=O)c1ccc(Cl)cc1 |
| 2.07 | 38.2 | COc1ccc2c(c1)c(CC(=O)NS(=O)(=O)c1ccc(C(F)(F)F)cc1)cn2C(=O)c1ccc(Cl)cc1 |
| 4.69 | 55.3 | COc1ccc2c(c1)c(C)c(CCC(=O)NS(=O)(=O)c1ccc(C(C)C)cc1)n2C(=O)c1ccc(Cl)cc1 |
| 8.82 | 15.3 | COc1ccc2c(c1)c(CC(=O)NS(=O)(=O)c1ccccc1C)cn2C(=O)c1ccc(Cl)cc1 |
| 0.5 | 23.3 | O=C(O)Cc1cn(C(=O)c2ccc(Cl)cc2)c2ccc(F)cc12 |
| 2.24 | 65.4 | COc1ccc2c(c1)c(CC(=O)NS(C)(=O)=O)c(C)n2C(=O)c1ccc(Cl)cc1 |
| 2.4 | 100 | CCC(=O)Cc1cn(C(=O)O)c2ccc(OC)cc12 |
| 2.44 | 19.5 | COc1ccc2c(c1)c(CC(=O)O)c(C)n2C(=O)c1cccc(C(F)(F)F)c1 |
| 0.29 | 12.3 | COc1ccc2c(c1)c(C)c(CC(C)C(=O)O)n2C(=O)c1ccc(Cl)cc1 (racemic) |
| 3.25 | 21.1 | COc1ccc2c(c1)c(C)c(CCC(=O)NS(=O)(=O)c1ccccc1C)n2C(=O)c1ccc(Cl)cc1 |
| 1.11 | 33 | COc1ccc2c(c1)c(CC(=O)NS(=O)(=O)c1ccc(C#N)cc1)cn2C(=O)c1ccc(Cl)cc1 |
| 6.34 | 7.9 | COc1ccc2c(c1)c(CC(=O)NS(=O)(=O)c1ccc(C(C)C)cc1)cn2C(=O)c1ccc(Cl)cc1 |
| 1.19 | 16.8 | COc1ccc2c(c1)c(CC(=O)NS(=O)(=O)c1ccc3ccccc3c1)cn2C(=O)c1ccc(Cl)cc1 |
| > 100 | 100 | COc1ccc2[nH]c(C)c(CC(=O)O)c2c1 [DESCHLOROBENZOYL INDOMETHACIN] |
| 0.71 | 61 | COc1ccc2c(c1)c(CC(=O)O)c(C)n2C(=O)c1ccc(F)cc1 |
| 12 | 16.7 | COc1ccc2c(c1)c(CC(=O)NS(C)(=O)=O)cn2C(=O)c1ccc(Cl)cc1 |
| 7.54 | 43.6 | COC(=O)Cc1c(C)n(C(=O)c2ccc(C)cc2)c2ccc(OC)cc12 |
| 3.11 | 12.3 | COc1ccc2c(c1)c(C)c(CCC(=O)NS(=O)(=O)c1ccc(C)cc1)n2C(=O)c1ccc(Cl)cc1 |
| 0.12 | 9.82 | COc1ccc2c(c1)c(C)c(CC(C)(C)C(=O)O)n2C(=O)c1ccc(Cl)cc1 |
| 5.8 | 39.9 | COc1ccc(S(=O)(=O)NC(=O)Cc2cn(C(=O)c3ccc(Cl)cc3)c3ccc(OC)cc23)cc1 |

| Structure (SMILES) | IC50 [1] [µM] | IC50 [2] [µM] |
| --- | --- | --- |
| COC(=O)Cc1cn(C(=O)c2ccc(Cl)cc2)c2ccc(OC)cc12 | 11.3 | > 100 |
| COC(=O)Cc1c(C)n(C(=O)c2ccc(C(F)(F)F)cc2)c2ccc(OC)cc12 | 15.7 | > 100 |
| COC(=O)Cc1c(C)n(C(=O)c2ccc(Cl)cc2)c2ccc(OC)cc12 | 5.67 | > 100 |
| COC(=O)Cc1c(C)n(C(=O)c2ccc(OC)cc2)c2ccc(OC)cc12 | 7.59 | > 100 |
| COc1ccc2c(c1)c(CC(=O)O)cn2C(=O)c1ccc(C(F)(F)F)cc1 | 1.08 | > 100 |
| COc1ccc2c(c1)c1c(n2C(=O)c2ccc(Cl)cc2)CCC(C(=O)NS(C)(=O)=O)C1 (stereo unspecified) | 5.07 | > 100 |
| CCC(=O)Cc1cn(C(=O)OC)c2ccc(OC)cc12 | 22.8 | > 100 |
| COc1ccc2c(c1)c(CC(=O)O)cn2C(=O)c1ccc(F)cc1 | 4.96 | > 100 |
